Laboratory results reported in ChEMBL document CHEMBL3352495, “Discovery of the 1,7-diazacarbazole class of inhibitors of checkpoint kinase 1” (Bioorg Med Chem Lett, 2014).

How the values were obtained:
Assay type in all cases: ADME, organism-based
Mus musculus [1] = assay: Dose normalized AUC in CD1 mouse at 0.5 mg/kg, iv; parameters: dose 0.5 mg/kg, route intravenous; settings: in vivo
[2] = AUC in CD1 mouse at 5 mg/kg, po administered as suspension; parameters: dose 5 mg/kg, route oral; settings: plasma
[3] = Clearance in CD1 mouse at 0.5 mg/kg, iv; parameters: dose 0.5 mg/kg, route intravenous; settings: in vivo
[4] = Half life in CD1 mouse at 5 mg/kg, po administered as solution; parameters: dose 5 mg/kg, route oral; settings: in vivo
[5] = Oral bioavailability in CD1 mouse at 5 mg/kg administered as solution; settings: in vivo
[6] = Oral bioavailability in NCR mouse at 25 mg/kg administered as solution; settings: in vivo
[7] = AUC in CD1 mouse at 5 mg/kg, po administered as solution; parameters: dose 5 mg/kg, route oral; settings: plasma
Rattus norvegicus [8] = assay: Dose normalized AUC in Sprague-Dawley rat at 5 mg/kg, po administered as solution; parameters: dose 5 mg/kg, route oral; settings: in vivo
[9] = Oral bioavailability in CD1 mouse at 5 mg/kg administered as suspension; settings: in vivo
[10] = Cmax in CD1 mouse at 5 mg/kg, po administered as suspension; parameters: dose 5 mg/kg, route oral; settings: in vivo
Mus musculus [11] = assay: Dose normalized AUC in CD1 mouse at 5 mg/kg, po administered as solution; parameters: dose 5 mg/kg, route oral; settings: in vivo
Mus musculus [12] = assay: Dose normalized AUC in NCR mouse at 25 mg/kg, po administered as suspension; parameters: dose 25 mg/kg, route oral; settings: in vivo
[13] = Cmax in Sprague-Dawley rat at 5 mg/kg, po administered as solution; parameters: dose 5 mg/kg, route oral; settings: in vivo
[14] = AUC in NCR mouse at 25 mg/kg, po administered as suspension; parameters: dose 25 mg/kg, route oral; settings: plasma
Mus musculus [15] = assay: Dose normalized AUC in NCR mouse at 25 mg/kg, po administered as solution; parameters: dose 25 mg/kg, route oral; settings: in vivo
Mus musculus [16] = assay: Dose normalized AUC in CD1 mouse at 5 mg/kg, po administered as suspension; parameters: dose 5 mg/kg, route oral; settings: in vivo
[17] = Half life in NCR mouse at 25 mg/kg, po administered as suspension; parameters: dose 25 mg/kg, route oral; settings: in vivo
[18] = AUC in Sprague-Dawley rat at 1 mg/kg, iv; parameters: dose 1 mg/kg, route intravenous; settings: plasma
[19] = Half life in CD1 mouse at 0.5 mg/kg, iv; parameters: dose 0.5 mg/kg, route intravenous; settings: in vivo
[20] = Cmax in NCR mouse at 25 mg/kg, po administered as suspension; parameters: dose 25 mg/kg, route oral; settings: in vivo
[21] = Clearance in Sprague-Dawley rat at 1 mg/kg, iv; parameters: dose 1 mg/kg, route intravenous; settings: in vivo
[22] = Half life in Sprague-Dawley rat at 5 mg/kg, po administered as solution; parameters: dose 5 mg/kg, route oral; settings: in vivo
[23] = Oral bioavailability in NCR mouse at 25 mg/kg administered as suspension; settings: in vivo
[24] = AUC in CD1 mouse at 0.5 mg/kg, iv; parameters: dose 0.5 mg/kg, route intravenous; settings: plasma
[25] = AUC in Sprague-Dawley rat at 5 mg/kg, po administered as solution; parameters: dose 5 mg/kg, route oral; settings: plasma
[26] = Half life in CD1 mouse at 5 mg/kg, po administered as suspension; parameters: dose 5 mg/kg, route oral; settings: in vivo
[27] = Half life in Sprague-Dawley rat at 1 mg/kg, iv; parameters: dose 1 mg/kg, route intravenous; settings: in vivo
Rattus norvegicus [28] = assay: Dose normalized AUC in Sprague-Dawley rat at 1 mg/kg, iv; parameters: dose 1 mg/kg, route intravenous; settings: in vivo
[29] = Cmax in NCR mouse at 25 mg/kg, po administered as solution; parameters: dose 25 mg/kg, route oral; settings: in vivo
[30] = AUC in NCR mouse at 25 mg/kg, po administered as solution; parameters: dose 25 mg/kg, route oral; settings: plasma
[31] = Half life in NCR mouse at 25 mg/kg, po administered as solution; parameters: dose 25 mg/kg, route oral; settings: in vivo
[32] = Oral bioavailability in Sprague-Dawley rat at 5 mg/kg administered as solution; settings: in vivo
[33] = Cmax in CD1 mouse at 5 mg/kg, po administered as solution; parameters: dose 5 mg/kg, route oral; settings: in vivo

`CN1CCN(c2ccc(-c3cnc4[nH]c5cnc(C#N)cc5c4c3)cc2)CC1` gave an AUC/dose (Mus musculus [1]) of 0.25 kg·h/L, an AUC [2] of 1.72 µM·h and a clearance [3] of 67 mL/min/kg. It also gave a half-life [4] of 1.6 h, a bioavailability [5] of 54% and a bioavailability [6] of 50%. It also gave an AUC [7] of 1.85 µM·h, an AUC/dose (Rattus norvegicus [8]) of 0.42 kg·h/L and a bioavailability [9] of 50%. It also gave a Cmax [10] of 200 nM, an AUC/dose (Mus musculus [11]) of 0.14 kg·h/L and an AUC/dose (Mus musculus [12]) of 0.14 kg·h/L. The Cmax [13] was 930 nM, the AUC [14] was 9.37 µM·h and the AUC/dose (Mus musculus [15]) was 0.13 kg·h/L. The AUC/dose (Mus musculus [16]) was 0.13 kg·h/L, the half-life [17] was 4 h and the AUC [18] was 1.81 µM·h. The half-life [19] was 5.8 h, the Cmax [20] was 910 nM and the clearance [21] was 27 mL/min/kg. For the same compound, the half-life [22] was 2.3 h, the bioavailability [23] was 55% and the AUC [24] was 0.34 µM·h. The AUC [25] was 5.64 µM·h, the half-life [26] was 2.9 h and the half-life [27] was 1.8 h. It also gave an AUC/dose (Rattus norvegicus [28]) of 0.67 kg·h/L, a Cmax [29] of 2510 nM and an AUC [30] of 8.46 µM·h. It also gave a half-life [31] of 2.1 h, a bioavailability [32] of 62% and a Cmax [33] of 450 nM.
